Assay results: patent publication US11466066B2, “Variants of human BMP7 protein” (ELI LILLY AND COMPANY, priority 2017, dated 2022)
Marks after values point to notes of the source that are not given here.

How the values were obtained:
[1] = tested on: human articular osteoarthritic (OA) chondrocytes; test: Proteoglycan synthesis (35S incorporation); format: cell-based; conditions: 7 days
Excerpt: Proteoglycan synthesis in human articular osteoarthritic (OA) chondrocytes is an n vitro model for chondrocyte activity. The effect of human mature BMP7 protein variants may also be evaluated on proteoglycan synthesis m human articular OA chondrocytes in vitro and compared to wild type human mature pro-BMP7. The proteoglycan synthesis may be measured using ^35S incorporation. Arthritic human knee cartilage is obtained from donors at surgery. The cartilage pieces may be finely chopped and chondrocytes may be isolated from the associated matrix by enzymatic digestions. The cartilage may be first digested with 1 mg/ml pronase in DMEM/PRF (phenol red free) media with 5% Fe supplemented calf serum (FCS) and 2% penicillin-streptomycin-antimycotic for 60 minutes followed by overnight digestion with 1 mg/ml collagenase II in DMEM/PRF media with 5% FCS) and 2% penicillin-streptomycin-antimycotic at 37° C. The cells may be washed with DMEM/F-12 media and then resuspended in DMEM/F-12 with 5% FCS and counted with a Coulter counter. The cells may be plated at a density of 30,000 cells/well in 96-well collagen coated CytoStar T plate in growth media containing DMEM, 5% FCS. ITS (insulin, transferin, selenium) and 1% penicillin-streptomycin-antimycotic. After 24 hours, the media may be replaced with 100 μl of growth media containing 10 μCi/ml (1 μCi/well) of ^35S and treated with wild type human pro-BMP7 or a human pro-BMP7 protein variants at various doses. Then the cells may be incubated for approximately 7 days at 37° C. with 5% CO2. At the end of the treatment period the media may be removed, replaced with phosphate buffered saline and ^35S incorporation is counted using a Wallac 1450 MicroBeta TriLux Liquid Scintillation Counter & Luminometer.

[2] = tested on: DLD1 C5 tumor xenografts; test: DLD1 C5 mouse xenograft tumor model; format: in vivo; conditions: F9 IP 0.04 mg/kg MWF for 3 weeks followed by 3 weeks irinotecan 20 mg/kg M and Th
Procedure: Female athymic nude mice age 6- to 7-weeks old are available commercially, including from Harlan Laboratories (Indianapolis, Ind.). The mice are allowed to acclimate for one week and fed ad libitum on a normal low fat (4.5%) diet, which may be continued for the duration of the study. Tumor cells are available for purchase from ATCC and may be cultured in cell culture media such as RPMI 1640 (Life Technologies) with L-glutamine, 25 mM HEPES supplemented with 10% FBS and 1 mM Na Pyruvate. Cells may be detached, washed with serum free medium and then resuspended at a final concentration of 50×10^6 cells/mL in serum free RPMI 1640. Tumor cells, approximately 5×106 may be injected subcutaneously in the rear flank of subject mice in a 1:1 mixture of serum free growth medium and Matrigel (Becton Dickinson, Bedford, Mass.). Tumor and body weight measurements may be performed twice weekly. Prior to treatment, mice can be randomized based on tumor size using a randomization algorithm. Treatments may be started when the average tumor volume reaches 100 mm3. […]
All test or control proteins are prepared in phosphate Buffered Saline (PBS) prior to dose. Tumor size may be determined by caliper measurements. […] Log volume data can be analyzed with two-way repeated measures ANOVA by time and treatment using SAS PROC MIXED software (SAS Institutes Inc, Cary, N.C.). […]

| Molecule | Proteoglycan Synthesis (35S incorporation) ([1]; Treatment (ng) 0.1) [CPMs] | Proteoglycan Synthesis (35S incorporation) ([1]; Treatment (ng) 0.4) [CPMs] | Proteoglycan Synthesis (35S incorporation) ([1]; Treatment (ng) 1.2) [CPMs] | Proteoglycan Synthesis (35S incorporation) ([1]; Treatment (ng) 3.7) [CPMs] | Proteoglycan Synthesis (35S incorporation) ([1]; Treatment (ng) 11) [CPMs] | Proteoglycan Synthesis (35S incorporation) ([1]; Treatment (ng) 33) [CPMs] | Proteoglycan Synthesis (35S incorporation) ([1]; Treatment (ng) 100) [CPMs] | Proteoglycan Synthesis (35S incorporation) ([1]; Treatment (ng) 300) | tumor response [2] |
| --- | --- | --- | --- | --- | --- | --- | --- | --- | --- |
| Wild type human pro-BMP7: homodimers of wild type human mature BMP7 in a non-covalent complex with wild type human pro-domain [reference compound] | 679 ± 120 | 724 ± 120 | 679 ± 120 | 666 ± 130 | 723 ± 72 | 799 ± 65 | 1500 ± 309 | 3325 ± 237^a CPMs |  |
| Human mature BMP7 protein variant F9 (SEQ ID NO: 8): homodimer wherein each monomeric subunit has SEQ ID NO: 8 (Y65G/I86L/F93V/N110G/Y128W), disulfide linked (protein, homodimer, disulfide linked) STGSKQRSQNRSKTPKNQEALRMANVAENSSSDQRQACKKHELYVSFRDLGWQDWIIAPEGYAAGYCEGECAFPLNSYMNATNHALVQTLVHVINPETVPKPCCAPTQLGAISVLYFDDSSNVILKKWRNMVVRACGCH |  |  |  |  |  |  |  |  | tumor regression |
